From US4281121A, “1,3,4-Thiadiazole-2-carboxylic acid derivatives, process for making the same and fungicidal and nematocidal compositions containing same” (Schering Aktiengesellschaft, priority 1978, dated 1981) come the findings set out here.

Where two headings read alike, the source gives them in different places.

One assay deals with Septoria nodorum. The assay is described as follows: Treatment of oat seeds against Septoria nodorum. The format is in vivo. Particulars: 50 g active agent/100 kg seeds; 4 weeks. Here is the method: Effects of the treatment of oat seeds against Septoria nodorum
They were then seeded on a moist substrate for germination. As a control untreated seeds were likewise seeded. At about 6° C. the seed was incubated in an air-conditioned chamber until after 4 weeks the proportion of diseased seeds could be determined and the activity of the fungicidal compounds was calculated on the basis of the following formula: [formula]
The active agents were applied in the form of 20% concentration pulverulent compositions.

The subject of assay [1] is Tilletia caries. The experiment in a line: Treatment of oat seeds infested with Tilletia caries (spore germination). It counts as in vivo.
A further assay deals with Helminthosporium gram. The following applies: about 5 weeks.
The subject of assay [2] is Helminthosporium gramineum. The assay is described as follows: Seed treatment in open field tests for infestation by Helminthosporium gramineum (barley). The format is in vivo. The following applies: summer barley, about 3 months. Here is the method:
Seed treatment in open field tests for infestation by Helminthosporium gramineum
The active agents were used in the form of pulverulent compositions. After about 8 months in case of winter barley and after about 3 months in case of summer barley the infested plants were counted and the activity was calculated by the formula [formula]

For another assay, the system named is Pythium ultimum. The experiment in a line: Threshold concentration test for use of the compounds against Pythium ultimum (infested soil, garden peas). On the set-up: key to root evaluation (1-4): 4: white roots without fungous necrosis; 3: white roots, minor fungous necrosis; 2: brown roots, already more pronounced fungous necrosis; 1: heavy fungous necrosis, roots rotted. It counts as in vivo. The following applies: for root evaluation (1-4): 3 weeks; for number of sound peas: 20 grains per dish, 3 weeks at 20-24° C. The method, boiled down:
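Pulverulent agents at 20% concentration mixed evenly into soil heavily infested with Pythium ultimum, then garden peas ('Wunder von Kelvedon', 20 per dish) sown at once. After three weeks at 20–24 °C in a hothouse, sound peas counted and roots scored on a 1–4 scale.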

The subject of a further assay is Piricularia oryzae. It counts as in vivo. Particulars: 5 days.
The next assay has as its system Plasmopara viticola. The experiment in a line: Prophylactic leaf treatment of grapevines in the hothouse against Plasmopara viticola. The format is in vivo. A digest of the protocol: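 Grapevines (5–8 leaves) sprayed to runoff with compound as 20% spray powder, then after drying inoculated on leaf undersides with sporangial suspension (~20,000/ml). Incubated at 22–24 °C, saturated humidity, 3–4 days normal humidity (30–70%), then one day saturated; activity from mean % infested leaf area per treatment.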

For a further assay, the system named is Botrytis cinerea. The experiment in a line: Inhibition of fungus in a nutrient solution: Botrytis cinerea.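 Further: 0 means no fungus growth and higher grades mean more surface covered.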 It counts as cell-based. Particulars: 6 days at 21-23° C.
A further assay relates to Alternaria solani. The experiment in a line: Inhibition of fungus in a nutrient solution: Alternaria solani.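 Further: 0 means no fungus growth and higher grades mean more surface covered.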 The format is cell-based. The following applies: 6 days at 21-23° C.
The test system of another assay is Penicillium digitatum. The experiment in a line: Inhibition of fungus in a nutrient solution: Penicillium digitatum.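 Further: 0 means no fungus growth and higher grades mean more surface covered.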 It counts as cell-based. Particulars: 6 days at 21-23° C.
In another assay the test system is Fusarium avenaceum. The experiment in a line: Inhibition of fungus in a nutrient solution: Fusarium avenaceum.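 Further: 0 means no fungus growth and higher grades mean more surface covered.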 Particulars: 6 days at 21-23° C. The format is cell-based. Here is the method:
Inhibition of fungus in a nutrient solution
20 ml of a nutrient solution of grape juice and water (1:1) were filled into a glass vial of a 100 ml capacity and were mixed with the pulverulent active agents which appear from the subsequent table. Thereafter, the solution was inoculated with conidia (spores) of the test fungi.
After an incubation time of 6 days at 21° to 23° C. the fungus development on the surface of the nutrient solution was evaluated. The test fungi used were the following: Penicillium digitatum, Botrytis cinerea, Alternaria solani, Fusarium avenaceum.
The evaluation was carried out at a scale from 0 to 5 as follows: […]

Assay [3] has as its system Tilletia caries. The assay is described as follows: Seed treatment in open field tests regarding infestation by Tilletia caries (oats). It counts as in vivo. The following applies: winter oats; 100 g active agent/100 kg; about 9 months.
Setting [4] is: 25 g active agent/100 kg barley.
Setting [5] is: 50 g active agent/100 kg barley.
Where [6] appears, read: 100 g active agent/100 kg barley.
Where [7] appears, read: concentration of active agent 0.1 (percentages).
The mark [8] stands for this setting: concentration of active agent 0.025 (unit not given).

For the compound `CCS(=O)(=O)c1nnc(C(=O)NCCOC)s1` [5-ethylsulfonyl-1,3,4-thiadiazole-2-carboxylic acid-(2-methoxyethyl)-amide], the “% activity” value in the assay on Septoria nodorum turned out to be 86%; in the assay with Tilletia caries [1] (10 g active agent per 100 kg), 100%; in the assay with Tilletia caries [1] (20 g active agent per 100 kg), 100%; with Tilletia caries [1] (50 g active agent per 100 kg), 100%; in the assay with Helminthosporium gram (10 g active agent per 100 kg) it was 100%; in the assay with Helminthosporium gram (20 g active agent per 100 kg), 99%. The “% activity” value in the assay on Helminthosporium gram (50 g active agent per 100 kg) is 100%; in assay [2] (setting [4]), 92%; in assay [2] (setting [5]), 98%; in assay [2] (setting [6]) it was 99.8%; in the assay with Piricularia oryzae (setting [7]) it was 90%. Further, the “root evaluation (1-4)” value was 1 with Pythium ultimum (20 mg/l soil), 4 in the assay on Pythium ultimum (40 mg/l soil) and 4 with Pythium ultimum (80 mg/l soil). Moreover, the “number of sound peas” value was found to be 13 in the assay on Pythium ultimum (20 mg/l soil), 16 in the assay on Pythium ultimum (40 mg/l soil) and 16 in the assay on Pythium ultimum (80 mg/l soil).

`CCS(=O)(=O)c1nnc(C(=O)NCCCOC)s1` [5-ethylsulfonyl-1,3,4-thiadiazole-2-carboxylic acid-(3-methoxypropyl)-amide]: the “% activity” value is recorded as 86% in the assay on Septoria nodorum; 100% in the assay on Tilletia caries [1] (10 g active agent per 100 kg); 100% in the assay on Tilletia caries [1] (20 g active agent per 100 kg); 100% in the assay on Tilletia caries [1] (50 g active agent per 100 kg); 90% in the assay on Plasmopara viticola (setting [8]); 99% in the assay on Helminthosporium gram (10 g active agent per 100 kg). Also, the “% activity” value with Helminthosporium gram (20 g active agent per 100 kg) was 99%; with Helminthosporium gram (50 g active agent per 100 kg) it was 100%; in assay [2] (setting [4]), 94%; in assay [2] (setting [5]), 96%; in assay [2] (setting [6]), 100%; in the assay with Piricularia oryzae (setting [7]), 97%. Moreover, the “root evaluation (1-4)” value in the assay on Pythium ultimum (20 mg/l soil) stood at 1; with Pythium ultimum (40 mg/l soil), 4; in the assay with Pythium ultimum (80 mg/l soil) it was 4. Moreover, the “number of sound peas” value with Pythium ultimum (20 mg/l soil) is 11; in the assay with Pythium ultimum (40 mg/l soil), 18; in the assay with Pythium ultimum (80 mg/l soil), 17.

For `CCCCNC(=O)c1nnc(S(=O)(=O)CC)s1` [5-ethylsulfonyl-1,3,4-thiadiazole-2-carboxylic acid-butylamide], the “% activity” value in the assay with Tilletia caries [1] (10 g active agent per 100 kg) worked out at 100%; in the assay with Tilletia caries [1] (20 g active agent per 100 kg) it was 100%; with Tilletia caries [1] (50 g active agent per 100 kg) it was 100%; in [2] (setting [6]), 100%; in the assay on Piricularia oryzae (setting [7]), 97%. In addition, the “fungus development on the surface of the nutrient solution (0-5)” value (“fungus development on the surface” for short) is recorded as 2 (5 to 10% of the surface covered by the fungus turf) with Botrytis cinerea (0.002%); 0 in the assay with Botrytis cinerea (0.004%); 1 in the assay with Alternaria solani (0.002%); 0 with Alternaria solani (0.004%); 1 in the assay on Penicillium digitatum (0.002%); 0 in the assay with Penicillium digitatum (0.004%). Moreover, the “fungus development on the surface” value in the assay on Fusarium avenaceum (0.002%) came to 1; in the assay on Fusarium avenaceum (0.004%), 0. Also, the “root evaluation (1-4)” value with Pythium ultimum (20 mg/l soil) is listed as 1; in the assay on Pythium ultimum (40 mg/l soil), 4; with Pythium ultimum (80 mg/l soil) it was 4. For the same compound, the “number of sound peas” value with Pythium ultimum (20 mg/l soil) is given as 8; in the assay on Pythium ultimum (40 mg/l soil) it was 16; with Pythium ultimum (80 mg/l soil) it was 20.

As for `CCOC(=O)c1nnc(S(=O)(=O)CC)s1` [5-ethylsulfonyl-1,3,4-thiadiazole-2-carboxylic acid-ethylester], the “fungus development on the surface” value in the assay on Botrytis cinerea (0.002%) is given as 2 (5 to 10% of the surface covered by the fungus turf); in the assay with Botrytis cinerea (0.004%) it was 0; with Alternaria solani (0.002%), 0; in the assay with Alternaria solani (0.004%) it was 0; with Penicillium digitatum (0.002%) it was 1; with Penicillium digitatum (0.004%) it was 0. Also, the “fungus development on the surface” value in the assay on Fusarium avenaceum (0.002%) amounted to 1; in the assay with Fusarium avenaceum (0.004%), 0. In addition, the “% activity” value with Piricularia oryzae (setting [7]) turned out to be 95%.

With `CCS(=O)(=O)c1nnc(C(=O)NC(C)C)s1` [5-ethylsulfonyl-1,3,4-thiadiazole-2-carboxylic acid-isopropylamide], the “% activity” value with Septoria nodorum was 86%; with Tilletia caries [1] (10 g active agent per 100 kg), 100%; with Tilletia caries [1] (20 g active agent per 100 kg), 100%; with Tilletia caries [1] (50 g active agent per 100 kg) it was 100%; in the assay with Plasmopara viticola (setting [8]), 92%; in the assay on Helminthosporium gram (10 g active agent per 100 kg) it was 95%. In addition, the “% activity” value in the assay on Helminthosporium gram (20 g active agent per 100 kg) worked out at 98%; in the assay with Helminthosporium gram (50 g active agent per 100 kg), 100%; in assay [2] (setting [4]), 96%; in [2] (setting [5]) it was 100%; in [2] (setting [6]), 99.8%; in the assay with Piricularia oryzae (setting [7]), 99%. The “root evaluation (1-4)” value with Pythium ultimum (20 mg/l soil) worked out at 3; in the assay with Pythium ultimum (40 mg/l soil), 3; with Pythium ultimum (80 mg/l soil), 4. For the same compound, the “number of sound peas” value stood at 16 in the assay on Pythium ultimum (20 mg/l soil), 15 in the assay with Pythium ultimum (40 mg/l soil) and 16 in the assay with Pythium ultimum (80 mg/l soil).

In the case of `CCCNC(=O)c1nnc(S(=O)(=O)CC)s1` [5-ethylsulfonyl-1,3,4-thiadiazole-2-carboxylic acid-propylamide], the “% activity” value came to 81% in the assay on Septoria nodorum; 100% with Tilletia caries [1] (10 g active agent per 100 kg); 100% in the assay with Tilletia caries [1] (20 g active agent per 100 kg); 100% with Tilletia caries [1] (50 g active agent per 100 kg); 92% in the assay with Helminthosporium gram (50 g active agent per 100 kg); 95% in [2] (setting [4]). The “% activity” value is on record as 99.3% in assay [2] (setting [5]) and 100% in assay [2] (setting [6]).

Consider `CS(=O)(=O)c1nnc(C(=O)NCC2CCCCC2)s1` [5-methylsulfonyl-1,3,4-thiadiazole-2-carboxylic acid cyclohexylmethylamide], for which the “% activity” value with Tilletia caries [1] (5 g active agent per 100 kg) is reported as 86%; with Tilletia caries [1] (10 g active agent per 100 kg), 99%; in the assay with Tilletia caries [1] (20 g active agent per 100 kg) it was 100%; in the assay on Plasmopara viticola (concentration of active agent 0.001 (unit not given)), 76%; with Plasmopara viticola (concentration of active agent 0.005 (unit not given)) it was 88%; in the assay on Plasmopara viticola (setting [8]), 97%. For the same compound, the “% activity” value in the assay on Tilletia caries [3] was determined as 100%; in the assay with Piricularia oryzae (concentration of active agent 0.02 (percentages)), 60%; with Piricularia oryzae (setting [7]), 80%.

Take `N#Cc1c(Cl)c(Cl)c(Cl)c(C#N)c1Cl` [Tetrachloroisophthalodinitrile, reference compound]: the “fungus development on the surface” value in the assay with Botrytis cinerea (0.002%) is listed as 5 (60 to 100% of the surface covered by the fungus turf); in the assay on Botrytis cinerea (0.004%), 4 (30 to 60% of the surface covered by the fungus turf); in the assay on Alternaria solani (0.002%) it was 5 (60 to 100% of the surface covered by the fungus turf); in the assay on Alternaria solani (0.004%), 5 (60 to 100% of the surface covered by the fungus turf); in the assay on Penicillium digitatum (0.002%) it was 3 (10 to 30% of the surface covered by the fungus turf); in the assay with Penicillium digitatum (0.004%) it was 2 (5 to 10% of the surface covered by the fungus turf). Further, the “fungus development on the surface” value in the assay on Fusarium avenaceum (0.002%) was 4 (30 to 60% of the surface covered by the fungus turf); in the assay on Fusarium avenaceum (0.004%), 3 (10 to 30% of the surface covered by the fungus turf).
